According to patent US20250163056A1, “NONMUSCLE MYOSIN II INHIBITORS” (The University of Florida Research Foundation, Inc., priority 2018, published 2025):
Read-outs that look alike come from different tables or passages of the source.

Key:
rodent behaviors = details: systemically administered
Bovine cardiac myosin = Bovine cardiac myosin (Bos taurus (Bovine), UniProt Q9BE39); test: Cardiac muscle myosin II actin-activated ATPase assay (NADH-coupled); assay type: biochemical; parameters: key to Ratio CMMII:NMII Ki/EC50: NMII-sel: no Ki value for cardiac myosin II could be determined; the compounds had no detectable inhibitory properties versus the cardiac myosin II; details: for CMMII/NMII Ratio: cardiac Ki relative to NMII EC50; for Ratio CMMII:NMII Ki/EC50: cardiac myosin II Ki over nonmuscle myosin II EC50
Sequence of Bovine cardiac myosin (Q9BE39 whole entry): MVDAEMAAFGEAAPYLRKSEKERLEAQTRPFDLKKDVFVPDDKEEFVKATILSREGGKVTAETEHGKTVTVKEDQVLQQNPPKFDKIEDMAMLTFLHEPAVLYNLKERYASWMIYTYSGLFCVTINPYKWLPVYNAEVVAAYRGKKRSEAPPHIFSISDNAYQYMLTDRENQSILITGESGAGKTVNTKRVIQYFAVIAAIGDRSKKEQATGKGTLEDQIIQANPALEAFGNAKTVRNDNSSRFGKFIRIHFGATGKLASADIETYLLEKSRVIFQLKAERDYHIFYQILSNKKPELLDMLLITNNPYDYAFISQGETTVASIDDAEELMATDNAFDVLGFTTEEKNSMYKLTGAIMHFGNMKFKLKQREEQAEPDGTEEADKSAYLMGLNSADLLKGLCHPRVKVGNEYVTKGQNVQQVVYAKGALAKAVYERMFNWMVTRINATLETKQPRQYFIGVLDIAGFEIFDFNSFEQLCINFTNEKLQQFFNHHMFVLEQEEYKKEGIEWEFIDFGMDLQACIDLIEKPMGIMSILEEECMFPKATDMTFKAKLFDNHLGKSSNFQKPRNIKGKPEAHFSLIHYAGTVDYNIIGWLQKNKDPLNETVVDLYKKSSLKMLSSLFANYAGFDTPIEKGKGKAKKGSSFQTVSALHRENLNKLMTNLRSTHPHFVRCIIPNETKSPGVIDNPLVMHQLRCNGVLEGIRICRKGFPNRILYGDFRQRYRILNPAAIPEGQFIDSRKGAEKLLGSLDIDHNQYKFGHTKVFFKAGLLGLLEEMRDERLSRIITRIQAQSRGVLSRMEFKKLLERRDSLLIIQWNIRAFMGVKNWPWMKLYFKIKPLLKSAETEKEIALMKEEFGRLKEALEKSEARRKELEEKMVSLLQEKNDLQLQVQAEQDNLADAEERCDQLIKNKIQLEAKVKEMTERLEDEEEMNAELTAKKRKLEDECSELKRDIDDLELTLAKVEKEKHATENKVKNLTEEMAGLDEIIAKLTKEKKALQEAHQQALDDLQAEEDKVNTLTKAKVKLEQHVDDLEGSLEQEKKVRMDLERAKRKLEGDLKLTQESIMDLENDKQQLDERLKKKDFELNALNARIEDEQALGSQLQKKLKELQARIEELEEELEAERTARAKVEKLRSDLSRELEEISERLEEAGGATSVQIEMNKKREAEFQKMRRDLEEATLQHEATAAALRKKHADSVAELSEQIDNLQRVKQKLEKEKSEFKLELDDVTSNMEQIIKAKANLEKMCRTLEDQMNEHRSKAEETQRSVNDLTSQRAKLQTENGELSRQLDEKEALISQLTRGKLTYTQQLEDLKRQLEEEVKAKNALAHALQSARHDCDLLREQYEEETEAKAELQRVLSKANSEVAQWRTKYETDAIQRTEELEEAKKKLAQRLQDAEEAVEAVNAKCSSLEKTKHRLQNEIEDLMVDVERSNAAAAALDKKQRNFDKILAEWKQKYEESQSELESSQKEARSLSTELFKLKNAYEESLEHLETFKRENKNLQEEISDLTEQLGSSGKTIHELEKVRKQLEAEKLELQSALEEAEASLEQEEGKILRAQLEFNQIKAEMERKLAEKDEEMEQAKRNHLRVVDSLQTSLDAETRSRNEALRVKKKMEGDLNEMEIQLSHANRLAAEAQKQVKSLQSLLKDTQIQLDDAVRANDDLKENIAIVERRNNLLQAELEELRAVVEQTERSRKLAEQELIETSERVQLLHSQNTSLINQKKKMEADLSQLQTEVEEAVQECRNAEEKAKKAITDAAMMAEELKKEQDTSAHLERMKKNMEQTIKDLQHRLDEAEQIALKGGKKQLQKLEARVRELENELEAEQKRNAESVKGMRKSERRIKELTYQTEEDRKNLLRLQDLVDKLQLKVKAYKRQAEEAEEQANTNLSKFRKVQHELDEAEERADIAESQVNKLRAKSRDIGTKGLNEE
Sequence of Bovine cardiac myosin (P85100 whole entry partner): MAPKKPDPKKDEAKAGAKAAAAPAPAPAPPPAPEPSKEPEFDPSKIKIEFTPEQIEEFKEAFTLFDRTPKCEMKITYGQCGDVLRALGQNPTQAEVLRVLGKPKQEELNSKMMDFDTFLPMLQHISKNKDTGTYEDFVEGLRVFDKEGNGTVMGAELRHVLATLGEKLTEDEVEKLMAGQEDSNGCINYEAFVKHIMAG
Sequence of Bovine cardiac myosin (Q3SZE5 whole entry partner): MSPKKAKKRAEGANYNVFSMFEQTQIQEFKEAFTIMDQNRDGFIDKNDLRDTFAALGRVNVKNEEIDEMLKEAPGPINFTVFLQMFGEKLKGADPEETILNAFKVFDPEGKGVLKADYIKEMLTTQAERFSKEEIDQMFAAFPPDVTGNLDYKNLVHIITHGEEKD
How it was run: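 Inhibitory constants came from a quadratic one-to-one binding fit of 16-point dose-responses (highest final 50 uM, triplicate). Rates were NADH-calibrated fluorescence slopes over 30 min at 25° C, with 300 nM bovine cardiac myosin, 10 μM actin and 1 mM ATP coupled through PK/LDH in pH 7.0 MOPS buffer.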

Rabbit skeletal myosin = test: Skeletal muscle myosin II actin-activated ATPase assay; assay type: biochemical; details: 20 nM skeletal muscle myosin II; read-out: SKMMII KI
How it was run: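 Inhibitory constants come from a quadratic one-site fit of 16-point, triplicate dose-response data, highest compound concentration 50 uM. Rates are slopes of NADH fluorescence decline over 30 min, coupling ATP turnover of 20 nM rabbit skeletal myosin II with 10 μM actin and 1 mM ATP via PK/LDH, pH 7.0, 25 °C.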

[1] = test system: hiPS cardiomyocytes (Cor.4U CMs); test: Cardiac safety assay 1: beating parameters of cardiomyocytes (xCELLigence RTCA Cardio); assay type: cell-based, human; details: hiPS-derived cardiomyocytes
Procedure: The spontaneous contractions of cardiomyocytes (CMs) is measured label-free in real time using the ACEA xCELLigence RTCA Cardio instrument. All measurements are performed at 37° C. in a cell culture incubator, allowing for spontaneous beating of CMs at physiological conditions. Cor.4U CMs are seeded at 3×10^4 cells/well in 180 μl/well maintenance medium. Prior to seeding, a background impedance measurement (plate plus medium) is performed. The contraction of CMs involves cyclic modulation of cell morphology and adhesion inducing a delta change in impedance. From the cyclic changes in impedance a beating frequency, amplitude and effects on beating pattern can be calculated. Time point “0” (baseline) is recorded 10× for 20 seconds at 1 minute intervals. Thereafter, compounds and control (0.1% DMSO) are added to the wells and effects are measured 30 minutes later. Vehicle control is 0.1% DMSO and positive control is 100 nM isoproterenol. Compounds are tested at 0.1, 0.3, 1.0 and 3.0 uM. Data is collected at 5, 10, 15, 20 and 30 minutes, and 1, 4, 6, 12 and 24 hours post-incubation.

[2] = Photostability, percentage remaining undegraded under illumination or in the dark; details: for Photostability 4 hours: percentage remaining undegraded after 4 hours illumination; for Photostability 24 hours: percentage remaining undegraded after 24 hours illumination; for Photostability Dark (24 h): percentage remaining undegraded in the dark
nonmuscle myosin II = nonmuscle myosin II (Chlorocebus sabaeus, UniProt A0A0D9RDH4); test: Cytokinesis cell-based assay of nonmuscle myosin II function in COS7 cells; details: read-out: NMII EC50
Sequence of nonmuscle myosin II (A0A0D9RDH4 1-1976): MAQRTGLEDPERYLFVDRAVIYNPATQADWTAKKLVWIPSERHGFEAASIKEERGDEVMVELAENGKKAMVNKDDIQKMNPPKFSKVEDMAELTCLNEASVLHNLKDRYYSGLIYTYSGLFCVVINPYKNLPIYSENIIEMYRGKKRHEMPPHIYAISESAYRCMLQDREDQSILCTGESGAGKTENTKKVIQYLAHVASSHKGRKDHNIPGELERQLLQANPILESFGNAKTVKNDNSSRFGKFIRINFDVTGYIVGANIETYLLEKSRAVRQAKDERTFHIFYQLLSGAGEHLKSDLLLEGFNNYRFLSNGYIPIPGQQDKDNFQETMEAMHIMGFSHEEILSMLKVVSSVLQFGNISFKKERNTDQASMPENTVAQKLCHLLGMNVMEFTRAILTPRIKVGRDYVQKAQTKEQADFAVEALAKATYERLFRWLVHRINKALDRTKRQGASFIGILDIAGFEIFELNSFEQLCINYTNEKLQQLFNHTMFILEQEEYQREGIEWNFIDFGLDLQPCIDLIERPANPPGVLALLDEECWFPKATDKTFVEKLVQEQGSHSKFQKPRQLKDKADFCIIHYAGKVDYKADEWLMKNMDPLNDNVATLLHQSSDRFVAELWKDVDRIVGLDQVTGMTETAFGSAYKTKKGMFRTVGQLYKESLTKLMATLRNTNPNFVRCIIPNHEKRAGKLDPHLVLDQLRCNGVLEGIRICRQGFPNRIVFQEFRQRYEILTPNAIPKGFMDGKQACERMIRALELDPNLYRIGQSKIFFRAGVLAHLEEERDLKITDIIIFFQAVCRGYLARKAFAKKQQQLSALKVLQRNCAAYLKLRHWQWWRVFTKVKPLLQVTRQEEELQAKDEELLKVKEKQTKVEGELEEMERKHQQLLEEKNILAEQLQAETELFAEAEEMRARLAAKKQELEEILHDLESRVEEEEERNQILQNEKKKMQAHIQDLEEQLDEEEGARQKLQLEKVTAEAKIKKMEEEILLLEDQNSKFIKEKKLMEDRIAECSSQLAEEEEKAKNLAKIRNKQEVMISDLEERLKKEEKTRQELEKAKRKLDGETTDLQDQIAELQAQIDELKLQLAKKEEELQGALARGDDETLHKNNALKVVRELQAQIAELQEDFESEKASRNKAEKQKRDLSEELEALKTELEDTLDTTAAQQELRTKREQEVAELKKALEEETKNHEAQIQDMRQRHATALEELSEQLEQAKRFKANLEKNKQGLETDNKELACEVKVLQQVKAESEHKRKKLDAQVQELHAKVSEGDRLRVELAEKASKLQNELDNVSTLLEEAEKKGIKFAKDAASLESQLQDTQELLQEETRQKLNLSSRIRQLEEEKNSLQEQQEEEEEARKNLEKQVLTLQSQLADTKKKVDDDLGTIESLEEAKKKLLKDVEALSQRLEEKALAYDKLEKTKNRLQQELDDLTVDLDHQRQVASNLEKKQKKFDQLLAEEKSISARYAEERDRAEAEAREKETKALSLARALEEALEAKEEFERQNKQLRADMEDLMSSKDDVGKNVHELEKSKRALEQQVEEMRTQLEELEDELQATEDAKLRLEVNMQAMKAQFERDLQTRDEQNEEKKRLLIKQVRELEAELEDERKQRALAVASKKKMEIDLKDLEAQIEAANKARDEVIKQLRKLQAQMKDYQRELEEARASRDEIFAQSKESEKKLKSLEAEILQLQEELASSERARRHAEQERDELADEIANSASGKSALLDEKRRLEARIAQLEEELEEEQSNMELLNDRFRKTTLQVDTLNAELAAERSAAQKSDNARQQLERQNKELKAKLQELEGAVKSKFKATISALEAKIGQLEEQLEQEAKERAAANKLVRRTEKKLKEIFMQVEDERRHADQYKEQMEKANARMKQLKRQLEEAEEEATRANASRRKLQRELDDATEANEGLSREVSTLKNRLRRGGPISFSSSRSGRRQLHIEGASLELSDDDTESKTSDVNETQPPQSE
Procedure: Cytokinesis is a cell-based assay to assess nonmuscle myosin II function, performed using COS7 cells. The assay is run in a 96 well plate, with 2,000 cells plated per well. Total incubation time is 48 hours, with 24 hours of treatment with the compound of interest. Prior to treatment with small molecules, a two-fold dilution series of compound solutions is prepared in DMSO. Starting concentrations are determined based on compound solubility. Compound solutions are further diluted in DMEM medium to a final DMSO concentration of 2% (50-fold dilution). Subsequently, 100 μl diluted solution is transferred to each well of the plate containing 100 μl of cell culture (achieving 1% final DMSO concentration). All measurements are carried out in triplicate. Cells are stained by fluorescein diacetate (6 μM), a cell viability dye, the cell-permeant Hoescht33342 (10 μM) and the membrane-impermeant propidium iodide (4 μM) to label all nuclei and those belonging to dead cells, respectively. Dye solutions are replaced by fresh media after 10 minutes of incubation. An INCell Analyzer 6000 is used for imaging. […] Cytotoxicity is also assayed and quantified as the ratio of dead nuclei to total nuclei. […] Half maximal effective concentration (EC50) is determined by fitting the 6-point dose-response data to the Hill equation.

[3] = 300 nM cardiac myosin, 10 μM actin, 25° C., read-out: CMMII KI
[4] = cardiac muscle myosin II, read-out: CMMII Ki

| Ki (Bovine cardiac myosin; [3]) [µM] | CMMII/NMII Ratio (Bovine cardiac myosin) | Ki (Bovine cardiac myosin; [4]) [µM] | Ratio CMMII:NMII Ki/EC50 (Bovine cardiac myosin) | Ki (Rabbit skeletal myosin) [µM] | Photostability 4 hours [2] [%] | Photostability 24 hours [2] [%] | Photostability Dark (24 h) [2] [%] | SMILES | effect in a broad panel of rodent behaviors (rodent behaviors) | Qualitative impact on contractility (e.g. Full = Complete inhibition of contraction) ([1]; 0.1 uM-1.0 uM) | Change in amplitude at 1 uM @ 15 min [1] | Qualitative impact on contractility (e.g. Full = Complete inhibition of contraction) ([1]; 3.0 uM) | Photostability 4 hours (4 h) [%] | Photostability 24 hours (24 h) [%] | Photostability Dark (24 h) [%] | EC50 (nonmuscle myosin II) [µM] |
| --- | --- | --- | --- | --- | --- | --- | --- | --- | --- | --- | --- | --- | --- | --- | --- | --- |
| – | – | – | – | – | – | – | – | Cc1ccc2c(c1)C(=O)C1(O)CCN(c3ccccc3)C1=N2 (racemic) [racemic Blebb] | no effect | – | – | – | – | – | – | – |
| 48 | 3.51 | 26.3 | 6.4 | 9.7 | 82.8 | 4.7 | 99.0 | Cc1cccc(N2CC[C@@]3(O)C(=O)c4cc(C)ccc4N=C23)c1 [BPN-0025100] | – | 0.1 uM-1.0 uM: No effect; 3.0 uM: | −7.8 ± 1.3% | Small effect | – | – | – | – |
| 120 | 9.25 | 47.2 | 23.5 | 22 | 96.1 | 48.6 | >99 | Cc1ccc2c(c1)C(=O)[C@]1(O)CCN(c3cccc(Cl)c3)C1=N2 [BPN-0025059] | – | 0.1 uM-1.0 uM: No effect; 3.0 uM: | +1.1 ± 0.1% | Small effect | – | – | – | – |
| – | – | – | NMII-sel | 18 | >99 | >99 | >99 | COc1cc(N2CC[C@@]3(O)C(=O)c4cc(C)c(C(F)(F)F)cc4N=C23)ccn1 [BPN-0027037] | – | – | – | – | – | – | – | – |
| 2.8 | – | – | 3.6 | 0.27 | 91.2 | 88.2 | 90.2 | Cc1sc2c(c1C)C(=O)[C@]1(O)CCN(c3ccc(Cl)cc3)C1=N2 [BPN-0026815] | – | – | – | – | – | – | – | – |
| 30 | – | – | 8.6 | 6 | 77.5 | 1 | 98.1 | Cc1cc2c(cc1C)C(=O)[C@]1(O)CCN(c3ccc4c(c3)CCCC4)C1=N2 [BPN-0028923] | – | – | – | – | – | – | – | – |

| SMILES | Ki (Bovine cardiac myosin; [3]) [µM] | CMMII/NMII Ratio (Bovine cardiac myosin) | Ki (Bovine cardiac myosin; [4]) [µM] | Ratio CMMII:NMII Ki/EC50 (Bovine cardiac myosin) | Ki (Rabbit skeletal myosin) [µM] | Photostability 4 hours [2] [%] | Photostability 24 hours [2] [%] | Photostability Dark (24 h) [2] [%] | effect in a broad panel of rodent behaviors (rodent behaviors) | Qualitative impact on contractility (e.g. Full = Complete inhibition of contraction) ([1]; 0.1 uM-1.0 uM) | Change in amplitude at 1 uM @ 15 min [1] | Qualitative impact on contractility (e.g. Full = Complete inhibition of contraction) ([1]; 3.0 uM) | Photostability 4 hours (4 h) [%] | Photostability 24 hours (24 h) [%] | Photostability Dark (24 h) [%] | EC50 (nonmuscle myosin II) [µM] |
| --- | --- | --- | --- | --- | --- | --- | --- | --- | --- | --- | --- | --- | --- | --- | --- | --- |
| Cc1cc(N2CC[C@@]3(O)C(=O)c4c(sc(C)c4C)NC23)ccc1C#N (some centres unmarked) [BPN-0026886] | 19 | – | – | 7.0 | 4.2 | – | – | – | – | – | – | – | >99 | 98.5 | >99 | – |
| O=C1c2cc(Cl)ccc2N=C2N(c3ccccc3)CC[C@@]12O [BPN-0025002] | – | 0.76 | 1.97 | – | – | – | – | – | – | – | −38.9 ± 2.4% | – | – | – | – | 2.6 |
